Ki and EC50 data for 28 compounds are collected here from patent publication US20100331305A1, “OXO-HETEROCYCLE FUSED PYRIMIDINE COMPOUNDS, COMPOSITIONS AND METHODS OF USE” (Genentech, Inc., priority 2009, published 2010).

Each structure is given as a SMILES string. Where “and” joins values, the source holds several entries; their conditions need not be identical. Identical values can stand only once.

Chain of mTOR enzyme (mTOR(1360-2549)+GBL) (P42345 1360-2549, species assumed): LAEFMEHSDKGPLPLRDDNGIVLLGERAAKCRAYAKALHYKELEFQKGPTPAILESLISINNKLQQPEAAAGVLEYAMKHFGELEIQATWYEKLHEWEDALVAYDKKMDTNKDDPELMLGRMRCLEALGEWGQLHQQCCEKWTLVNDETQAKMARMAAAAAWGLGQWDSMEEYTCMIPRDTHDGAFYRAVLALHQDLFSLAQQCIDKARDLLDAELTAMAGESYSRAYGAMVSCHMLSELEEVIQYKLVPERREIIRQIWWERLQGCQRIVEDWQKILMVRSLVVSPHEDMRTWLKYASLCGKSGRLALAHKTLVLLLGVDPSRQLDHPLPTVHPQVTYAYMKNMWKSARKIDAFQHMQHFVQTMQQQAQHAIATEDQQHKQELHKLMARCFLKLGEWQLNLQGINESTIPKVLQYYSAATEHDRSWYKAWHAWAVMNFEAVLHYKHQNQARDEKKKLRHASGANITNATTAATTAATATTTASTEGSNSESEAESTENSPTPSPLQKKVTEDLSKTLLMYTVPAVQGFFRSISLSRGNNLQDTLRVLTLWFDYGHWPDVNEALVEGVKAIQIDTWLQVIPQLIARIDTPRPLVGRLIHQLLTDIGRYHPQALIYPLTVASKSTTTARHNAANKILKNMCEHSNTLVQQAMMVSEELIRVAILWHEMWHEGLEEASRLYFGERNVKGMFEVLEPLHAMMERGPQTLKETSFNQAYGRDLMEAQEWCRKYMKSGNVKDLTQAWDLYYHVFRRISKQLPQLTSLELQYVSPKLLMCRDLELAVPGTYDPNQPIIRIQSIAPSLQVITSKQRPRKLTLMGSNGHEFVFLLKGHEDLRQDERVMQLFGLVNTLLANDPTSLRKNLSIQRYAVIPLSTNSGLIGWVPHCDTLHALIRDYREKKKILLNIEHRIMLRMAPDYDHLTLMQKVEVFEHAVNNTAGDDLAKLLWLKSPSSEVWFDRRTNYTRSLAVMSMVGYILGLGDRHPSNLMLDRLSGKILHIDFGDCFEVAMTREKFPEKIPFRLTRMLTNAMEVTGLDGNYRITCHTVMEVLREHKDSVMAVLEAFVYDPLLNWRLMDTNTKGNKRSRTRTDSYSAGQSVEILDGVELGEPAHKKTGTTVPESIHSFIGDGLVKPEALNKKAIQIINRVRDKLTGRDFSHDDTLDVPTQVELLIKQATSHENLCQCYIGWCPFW
Chain of mTOR enzyme (mTOR(1360-2549)+GBL) (Q9BVC4 whole entry partner, species assumed): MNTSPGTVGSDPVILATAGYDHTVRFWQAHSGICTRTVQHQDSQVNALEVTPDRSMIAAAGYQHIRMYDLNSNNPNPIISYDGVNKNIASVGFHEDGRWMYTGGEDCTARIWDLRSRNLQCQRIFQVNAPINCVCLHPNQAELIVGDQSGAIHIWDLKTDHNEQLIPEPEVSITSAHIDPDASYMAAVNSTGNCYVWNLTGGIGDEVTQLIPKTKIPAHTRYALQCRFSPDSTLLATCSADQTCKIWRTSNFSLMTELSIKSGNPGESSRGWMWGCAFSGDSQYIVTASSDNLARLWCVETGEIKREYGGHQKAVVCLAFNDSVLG

For one experiment, the target named is mTOR enzyme (mTOR(1360-2549)+GBL) (Homo sapiens, UniProt P42345). Description: In vitro mTOR kinase assay (TR-FRET). The note with it: 0.25 nM mTOR+GBL, 8 uM ATP; values tied to compounds by order of Table 1; 'x or y' = two alternative values for separated diastereomers of unassigned stereochemistry; read-out: activity level (Ki) in the mTOR kinase assay. The experiment is classed as biochemical. An excerpt:
a. In Vitro mTOR Kinase Assay
The reaction is stopped by an addition of a Terbium-labeled phospho-specific antibody, e.g., Tb-labeled anti-p4E-BP1 T37/T46, (Invitrogen, product #PR8835A), EDTA, and TR-FRET buffer solution (Invitrogen, Product #PR3756B). Product formation is detected by way of time-resolved fluorescence resonance energy transfer (TR-FRET), which occurs when the phosphorylated substrate and labeled antibody are in close proximity due to phospho-specific binding. Enzymatic activity is measured as an increase in TR-FRET signal using a Perkin Elmer Envision plate reader.
Compound activity is tested in 10 point dose curves starting at the highest final concentration of 10 uM. They are serially diluted in 100% DMSO prior to further dilution with assay buffer. […] 8 μL of solution containing 2 nM Tb-anti-p4E-BP1 antibody & 10 mM EDTA diluted TR-FRET buffer is then added and incubated for 30 minutes to stop the reaction. The plate is scanned with the Envision plate reader. Ki values are calculated in Assay Explorer using the Morrison ATP-competitive tight binding equation for Ki apparent determination.
Take `C[C@H]1COCCN1c1nc(-c2ccc(NS(=O)(=O)C3CC3)cc2)nc2c1COCC2` [Example 39, (S)—N-(4-(4-(3-methylmorpholino)-7,8-dihydro-5H-pyrano[4,3-d]pyrimidin-2-yl)phenyl)cyclopropanesulfonamide]: the inhibition constant (Ki) worked out at 270 nM. As to `CCNC(=O)Nc1ccc(-c2nc(N3CCOC[C@@H]3C)c3c(n2)[C@@](C)(CCN2CCOCC2)OC3)cc1` [Example 76 eo (R), 1-ethyl-3-(4-((R)-7-methyl-4-((S)-3-methylmorpholino)-7-(2-morpholinoethyl)-5,7-dihydrofuro[3,4-d]pyrimidin-2-yl)phenyl)urea], the Ki was found to be 15 nM.

For `COC1CCN(c2nc(-c3ccc(NC(=O)NC4COC4)cc3)nc3c2CCC2(CC2)O3)CC1` [Example 46, 1-(4-(4′-(4-methoxypiperidin-1-yl)-5′,6′-dihydrospiro[cyclopropane-1,7′-pyrano[2,3-d]pyrimidine]-2′-yl)phenyl)-3-(oxetan-3-yl)urea], the Ki was 620 nM. The same measure, in the same setting: with `COCC[C@]1(C)OCc2c(N3CCOC[C@@H]3C)nc(-c3ccc(N)nc3)nc21` [Example 111 hf^1] the figure was 101 nM and 30 nM. Regarding `COCC[C@@]1(C)OCc2c(N3CCOC[C@@H]3C)nc(-c3cnc(N)nc3)nc21` [Example 101 go (R), 5-((R)-7-(2-methoxyethyl)-7-methyl-4-((S)-3-methylmorpholino)-5,7-dihydrofuro[3,4-d]pyrimidin-2-yl)pyrimidin-2-amine], the Ki is 258 nM. As to `Nc1ncc(-c2nc3c(c(N4[C@@H]5CC[C@H]4COC5)n2)CCCO3)cn1` [Example 133, 5-(4-((1R,5S)-3-oxa-8-azabicyclo[3.2.1]octan-8-yl)-6,7-dihydro-5H-pyrano[2,3-d]pyrimidin-2-yl)pyrimidin-2-amine], the inhibition constant (Ki) turned out to be 97 nM. For the compound `C[C@H]1COCCN1c1nc(-c2ccc3nc(N)[nH]c3c2)nc2c1COC2(C)C` [Example 122, (S)-6-(7,7-dimethyl-4-(3-methylmorpholino)-5,7-dihydrofuro[3,4-d]pyrimidin-2-yl)-1H-benzo[d]imidazol-2-amine], the inhibitory constant (Ki) was found to be 7 nM. The same measure, in the same setting: with `CC1(C)OCc2c(N3CCOCC3)nc(-c3ccc4nc(N)[nH]c4c3)nc21` [Example 118, 6-(7,7-dimethyl-4-morpholino-5,7-dihydrofuro[3,4-d]pyrimidin-2-yl)-1H-benzo[d]imidazol-2-amine] the figure was 4 nM. Regarding `CC1COCCN1c1nc(-c2ccc(NC(=O)NC3COC3)cc2)nc2c1C1CCC(C2)O1` (single isomer, unassigned) [Example 63 dp^2], the Ki is 10 nM and 2 nM. Still for that read-out and setting: with `CCNC(=O)Nc1ccc(-c2nc3c(c(N4CCOC[C@@H]4C)n2)COC3=O)cc1` [Example 90, (S)-1-ethyl-3-(4-(4-(3-methylmorpholino)-7-oxo-5,7-dihydrofuro[3,4-d]pyrimidin-2-yl)phenyl)urea] the figure was 76 nM; with `CCNC(=O)Nc1ccc(-c2nc(N3CCOC[C@@H]3C)c3c(n2)[C@@](C)(CCN2CCC2)OC3)cc1` [Example 79 er (R), 1-(4-((R)-7-(2-(azetidin-1-yl)ethyl)-7-methyl-4-((S)-3-methylmorpholino)-5,7-dihydrofuro[3,4-d]pyrimidin-2-yl)phenyl)-3-ethylurea], 57 nM; with `CCNC(=O)Nc1ccc(-c2nc3c(c(N4CCOCC4C)n2)C2CCC(C3)O2)cc1` (single isomer, unassigned) [Example 62 do^2], 6 nM and 2 nM. Regarding `C[C@H]1COCCN1c1nc(-c2ccc3nc(N)[nH]c3c2)nc2c1CCCO2` [Example 64, (S)-6-(4-(3-methylmorpholino)-6,7-dihydro-5H-pyrano[2,3-d]pyrimidin-2-yl)-1H-benzo[d]imidazol-2-amine], the Ki was 122 nM. Consider `Nc1nc2ccc(-c3nc4c(c(N5C[C@H]6CC[C@@H](C5)O6)n3)CCCO4)cc2[nH]1` [Example 61, 6-(4-((1R,5S)-8-oxa-3-azabicyclo[3.2.1]octan-3-yl)-6,7-dihydro-5H-pyrano[2,3-d]pyrimidin-2-yl)-1H-benzo[d]imidazol-2-amine], for which the Ki was 12 nM. Still for that read-out and setting: with `CCNC(=O)N(CC)C(=O)Nc1ccc(-c2nc3c(c(N4CCOC[C@@H]4C)n2)CCOC3)cc1` [Example 13 am, (S)-1-ethyl-1-((ethylamino)carbonyl)-3-(4-(4-(3-methylmorpholino)-6,8-dihydro-5H-pyrano[3,4-d]pyrimidin-2-yl)phenyl)urea] the figure was 1180 nM; with `CCS(=O)(=O)Nc1ccc(-c2nc3c(c(N4CCOC[C@@H]4C)n2)COCC3)cc1` [Example 40, (S)—N-(4-(4-(3-methylmorpholino)-7,8-dihydro-5H-pyrano[4,3-d]pyrimidin-2-yl)phenyl)ethanesulfonamide], 183 nM; with `COC1CCN(c2nc(-c3ccc(NC(=O)Nc4ccn(C)n4)cc3)nc3c2CCC2(CC2)O3)CC1` [Example 47, 1-(4-(4′-(4-methoxypiperidin-1-yl)-5′,6′-dihydrospiro[cyclopropane-1,7′-pyrano[2,3-d]pyrimidine]-2′-yl)phenyl)-3-(1-methyl-1H-pyrazol-3-yl)urea], 884 nM. Regarding `COC1CCN(c2nc(-c3ccc(Nc4nccc(=O)[nH]4)cc3)nc3c2CCC2(CC2)O3)CC1` [Example 48, 2-(4-(4′-(4-methoxypiperidin-1-yl)-5′,6′-dihydrospiro[cyclopropane-1,7′-pyrano[2,3-d]pyrimidine]-2′-yl)phenylamino)pyrimidin-4(3H)-one], the Ki turned out to be 392 nM. Regarding `C[C@H]1COCCN1c1nc(-c2ccc(NS(C)(=O)=O)cc2)nc2c1COCC2` [Example 38, (S)—N-(4-(4-(3-methylmorpholino)-7,8-dihydro-5H-pyrano[4,3-d]pyrimidin-2-yl)phenyl)methanesulfonamide], the Ki was found to be 272 nM.

In the case of `C[C@H]1COCCN1c1nc(-c2cnc(N)nc2)nc2c1CO[C@]2(C)CCOc1ccccc1` [Example 104 gs (R), 5-((R)-7-methyl-4-((S)-3-methylmorpholino)-7-(2-phenoxyethyl)-5,7-dihydrofuro[3,4-d]pyrimidin-2-yl)pyrimidin-2-amine], the Ki is 297 nM.

As to `CC1(C)OCc2c(N3[C@@H]4CC[C@H]3COC4)nc(-c3cnc(N)nc3)nc21` [Example 106, 5-(4-((1R,5S)-3-oxa-8-azabicyclo[3.2.1]octan-8-yl)-7,7-dimethyl-5,7-dihydrofuro[3,4-d]pyrimidin-2-yl)pyrimidin-2-amine], the inhibition constant Ki amounted to 10 nM. For the compound `COCC[C@]1(C)OCc2c(N3CCOC[C@@H]3C)nc(-c3cnc(N)nc3)nc21` [Example 101 go (S), 5-((S)-7-(2-methoxyethyl)-7-methyl-4-((S)-3-methylmorpholino)-5,7-dihydrofuro[3,4-d]pyrimidin-2-yl)pyrimidin-2-amine], the inhibition constant (Ki) came to 393 nM. With `CNS(=O)(=O)c1ccc(-c2nc3c(c(N4CCOC[C@@H]4C)n2)COCC3)cc1` [Example 37, (S)—N-methyl-4-(4-(3-methylmorpholino)-7,8-dihydro-5H-pyrano[4,3-d]pyrimidin-2-yl)benzenesulfonamide], the Ki was found to be 343 nM. Still for that read-out and setting: with `CC[C@H]1COCCN1c1nc(-c2ccc(N)nc2)nc2c1CCCO2` [Example 129, (S)-5-(4-(3-ethylmorpholino)-6,7-dihydro-5H-pyrano[2,3-d]pyrimidin-2-yl)pyridin-2-amine] the figure was 11 nM; with `CCNC(=O)N(CC)C(=O)Nc1ccc(-c2nc3c(c(N4CCOCC4)n2)CCOC3)cc1` [Example 12, 1-ethyl-1-((ethylamino)carbonyl)-3-(4-(4-morpholino-6,8-dihydro-5H-pyrano[3,4-d]pyrimidin-2-yl)phenyl)urea], 4330 nM; with `C[C@H]1COCCN1c1nc(-c2ccc(S(C)(=O)=O)cc2)nc2c1COCC2` [Example 36, (S)-4-(3-methylmorpholino)-2-(4-(methylsulfonyl)phenyl)-7,8-dihydro-5H-pyrano[4,3-d]pyrimidine], 102 nM.

Turning to `Nc1ncc(-c2nc3c(c(N4C[C@H]5CC[C@@H](C4)O5)n2)CCCO3)cn1` [Example 131, 5-(4-((1R,5S)-8-oxa-3-azabicyclo[3.2.1]octan-3-yl)-6,7-dihydro-5H-pyrano[2,3-d]pyrimidin-2-yl)pyrimidin-2-amine], the inhibition constant Ki came to 106 nM.

A further experiment deals with PC3 cells. Description: In vitro cell proliferation assay. The class given is cell-based, human. The following applies: Homo sapiens, PC-3, with PC3 cells; values tied to compounds by order of Table 1. The method, then: c. In Vitro Cell Proliferation Assay Efficacy of Formula I compounds were measured by a cell proliferation assay employing the following protocol: 1. An aliquot of 20 μl of cell culture containing about 10^3 cells (PC3 or MDAMB361.1) in medium was deposited in each well of a 384-well, opaque-walled plate. 2. Control wells were prepared containing medium and without cells; Cells were allowed to settle overnight. 3. The compound was added to the experimental wells and incubated for 3 days. 4. The plates were equilibrated to room temperature for approximately 30 minutes. 5. A volume of CellTiter-Glo Reagent equal to the volume of cell culture medium present in each well was added. […] The contents were mixed for 2 minutes on an orbital shaker to induce cell lysis. 7. The plate was incubated at room temperature for 20 minutes to stabilize the luminescence signal. 8. Luminescence was recorded and reported in graphs as RLU=relative luminescence units. Alternatively, cells were seeded at optimal density in a 96 well plate and incubated for 4 days in the presence of test compound. Alamar BlueTM was subsequently added to the assay medium, and cells were incubated for 6 h before reading at 544 nm excitation, 590 nm emission. EC50 values were calculated using a sigmoidal dose response curve fit.
`CCNC(=O)Nc1ccc(-c2nc3c(c(N4CCOC[C@@H]4C)n2)COC(CO)C3)cc1` (stereo partly drawn) [1-ethyl-3-(4-(7-(hydroxymethyl)-4-((S)-3-methylmorpholino)-7,8-dihydro-5H-pyrano[4,3-d]pyrimidin-2-yl)phenyl)urea] registered a half-maximal effective concentration (EC50) of 445 nM.

Usually Ki stands for a dissociation constant, usually derived from enzyme kinetics or from competition with a known ligand. Broadly, the EC50 is the concentration giving half of the maximal effect. Lower therefore signals a more potent agent.
